Test results: US11015216B2, “Substituted imidazo[1,2-a]pyrazines as luciferase substrates” (PROMEGA CORPORATION, priority 2016, dated 2021)

Experiments:
luciferase [1] = experiment: Additional luciferase substrate assay, compared to known analogue C-1 (Table 3); type: biochemical; conditions: relative to C-1 (=1)
Experimental: (§1) Luminescence Assay Procedure: Each compound to be screened was dissolved in DMSO (5 mM) and then further diluted to 100 uM in NANO-GLOR Luciferase Assay Buffer. Each diluted substrate was then combined in equal volumes with purified NanoLuc® Luciferase diluted into CO2 independent media+10% FBS. Initial light output for each substrate was measured in a GloMax®-Multi+ luminometer three minutes after substrate addition and then at five minute intervals as a means to determine signal half-life.
The compounds of formula (I) were also evaluated for their ability to be luciferase substrates in an additional assay.

NanoLuc® Luciferase = NanoLuc® Luciferase (Oplophorus gracilirostris, UniProt Q9GV45, A31E/A60N/A81I/F95D/I117V/K70R/L54V/L99Q/M102K/N193R/P142E/Q151K/Q38R/Q45L/V71I/Y165I); type: biochemical; conditions: ratio to coelenterazine (=1); for I (relative light units, ratio in comparison to native coelenterazine): initial light output three minutes after substrate addition; for Half-life (signal half-life, ratio in comparison to native coelenterazine): read at five minute intervals
Experimental: as §1
A subset of the synthesized coelenterazine analogues (compounds of formula (I)) were evaluated for their suitability as luciferase substrates. NANOLUC® luciferase was employed for the screening because it is a small (19 kDa), stable, and particularly bright enzyme.

luciferase [2] = experiment: Additional luciferase substrate assay, compared to known analogue C-1 (Table 3); type: biochemical; conditions: relative to C-1 (=1); cell marked (75) instead of @100 uM
HEK293 cells = experiment: Cell viability assay, HEK293; type: cell-based; conditions: Hek293, 24 h incubation, serial dilution; FIGS. 5 and 6
Experimental: (§2) Cell Culture: HeLa and HEK293 cells were maintained in DMEM containing 0.3 mg/ml glutamine, 100 IU/ml penicillin, 100 μg/ml streptomycin, and 10% fetal calf serum at 37° C. in 5% CO2. Dulbecco's modified eagle medium (DMEM), Opti-MEM, Penicillin/Streptomycin, and Trypsin-EDTA were purchased from Life Technologies (Carlsbad). Fetal calf serum (FBS) was purchased from HyClone (GE Healthcare). Microtiter plates were purchased from Corning.
(§3) Cell viability assay: HEK293 or HeLa cells were plated in […] growth medium (DMEM supplemented with 10% FBS) into wells of white, TC-treated, 96-well plates at a density of 10000 cells per well and incubated for 24 h. The growth medium was then replaced with 100 μl Opti-MEM medium, which contained a serial dilution of the indicated compound. Changes in cell viability were then measured after incubation for 24 h using the […]® Green cell viability assay (Promega) according to manufacturer instructions. All luminescent measurements were performed on a GLOMAX® Discover multimode plate reader (Promega).

HeLa cells = experiment: Cell viability assay, HeLa; type: cell-based; conditions: 24 h incubation, serial dilution, FIGS. 3 and 4
Experimental: as §2, §3

Sequence of NanoLuc® Luciferase (Q9GV45 other isoform, or with tags, fused parts or gaps with the stated changes): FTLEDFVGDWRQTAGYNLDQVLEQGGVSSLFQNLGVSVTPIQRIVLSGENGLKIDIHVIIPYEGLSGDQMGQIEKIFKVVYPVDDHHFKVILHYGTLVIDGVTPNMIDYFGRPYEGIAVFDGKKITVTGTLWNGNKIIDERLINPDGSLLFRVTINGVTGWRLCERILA

Row | SMILES | RLU (@100 uM) (luciferase [1]) | I (relative light units, ratio in comparison to native coelenterazine) (NanoLuc® Luciferase) | Half-life (signal half-life, ratio in comparison to native coelenterazine) (NanoLuc® Luciferase) | RLU (luciferase [2]) | compound-induced cellular toxicity compared to coelenterazine (HEK293 cells) | compound-induced cellular toxicity compared to coelenterazine (HeLa cells)
1 | Cn1nc(-c2cccs2)cc1Cc1nc2c(Cc3ccccc3)[nH]c(-c3ccccc3)cn-2c1=O [Compound 12] | 0.0046 | 0.192 | 0.57 |  |  | 
2 | Cc1noc(C)c1Cc1nc2c(Cc3ccccc3)[nH]c(-c3ccccc3)cn-2c1=O [Compound 13] | 0.014 | 0.583 | 2.64 |  |  | 
3 | O=c1c(Cc2cn(-c3ccccc3)nc2-c2ccccc2)nc2c(Cc3ccccc3)[nH]c(-c3ccccc3)cn1-2 [Compound 14] | 0.001 | 0.042 | 2.15 |  |  | 
4 | COc1ncc(Cc2nc3c(Cc4ccccc4)[nH]c(-c4ccccc4)cn-3c2=O)cn1 [Compound 15] | 0.014 | 0.583 | 0.88 |  |  | 
5 | Cn1cc(Cc2nc3c(Cc4ccccc4)[nH]c(-c4ccccc4)cn-3c2=O)c(=O)n(C)c1=O [Compound 16] | 0.0001 | 0.0042 | 0.005 |  |  | 
6 | O=c1c(Cc2ccc(F)c(O)c2)nc2c(Cc3ccccc3)[nH]c(-c3ccccc3)cn1-2 [Compound 20] |  |  |  | 0.29 (75) |  | 
7 | COc1cc(F)ccc1Cc1nc2c(Cc3ccccc3)[nH]c(-c3ccccc3)cn-2c1=O [Compound 22] |  |  |  | 0.3 (75) |  | 
8 | O=c1c(Cc2cccnc2)nc2c(Cc3ccccc3)[nH]c(-c3ccccc3)cn1-2 [Compound 64] | 0.066 | 2.75 | 3.03 |  |  | 
9 | O=c1c(Cc2ccc(F)nc2F)nc2c(Cc3ccccc3)[nH]c(-c3ccccc3)cn1-2 [Compound 65] | 0.26 | 10.833 | 0.62 |  |  | 
10 | O=c1c(Cc2cncc(F)c2)nc2c(Cc3ccccc3)[nH]c(-c3ccccc3)cn1-2 [Compound 66] | 0.039 | 1.625 | 0.98 |  |  | 
11 | O=c1c(Cc2cccnc2F)nc2c(Cc3ccccc3)[nH]c(-c3ccccc3)cn1-2 [Compound 67] | 0.11 | 4.583 | 1.14 |  |  | 
12 | O=c1c(Cc2ccc(F)nc2)nc2c(Cc3ccccc3)[nH]c(-c3ccccc3)cn1-2 [Compound 68] | 0.31 | 12.916 | 0.93 |  |  | 
13 | O=c1c(Cc2ccc(Cl)nc2)nc2c(Cc3ccccc3)[nH]c(-c3ccccc3)cn1-2 [Compound 69] | 0.18 | 7.5 | 0.35 |  |  | 
14 | O=c1c(Cc2ccc(Br)nc2)nc2c(Cc3ccccc3)[nH]c(-c3ccccc3)cn1-2 [Compound 70] | 0.12 | 5 | 0.19 |  |  | 
15 | COc1ccc(Cc2nc3c(Cc4ccccc4)[nH]c(-c4ccccc4)cn-3c2=O)cn1 [Compound 71] | 0.65 | 27.083 | 0.14 |  |  | 
16 | COc1cncc(Cc2nc3c(Cc4ccccc4)[nH]c(-c4ccccc4)cn-3c2=O)c1 [Compound 72] | 0.029 | 1.208 | 0.88 |  |  | 
17 | COc1ccc(Cc2nc3c(Cc4ccccc4)[nH]c(-c4ccccc4)cn-3c2=O)c(OC)n1 [Compound 73] | 0.16 | 6.666 | 0.93 |  |  | 
18 | COc1nc(Cl)ccc1Cc1nc2c(Cc3ccccc3)[nH]c(-c3ccccc3)cn-2c1=O [Compound 74] | 0.072 | 3 | 1.09 |  |  | 
19 | O=c1c(Cc2ccc(Cl)nc2Cl)nc2c(Cc3ccccc3)[nH]c(-c3ccccc3)cn1-2 [Compound 75] | 0.023 | 0.958 | 0.57 |  |  | 
20 | Cc1ccc(Cc2nc3c(Cc4ccccc4)[nH]c(-c4ccccc4)cn-3c2=O)cn1 [Compound 76] | 0.04 | 1.666 | 1.14 |  | notably reduced toxicity | notably reduced toxicity
21 | CN(C)c1ccc(Cc2nc3c(Cc4ccccc4)[nH]c(-c4ccccc4)cn-3c2=O)cn1 [Compound 77] | 0.042 | 1.75 | 0.57 |  |  | 
22 | O=c1c(Cc2c(F)cc(F)cc2F)nc2c(Cc3ccccc3)[nH]c(-c3ccccc3)cn1-2 [Compound 78] | 0.21 | 8.75 | 0.43 |  |  | 
23 | N#Cc1cccc(Cc2nc3c(Cc4ccccc4)[nH]c(-c4ccccc4)cn-3c2=O)c1 [Compound 79] | 0.33 | 13.87 | 0.52 |  |  | 
24 | O=c1c(Cc2cn3ccsc3n2)nc2c(Cc3ccccc3)[nH]c(-c3ccccc3)cn1-2 [Compound 80] | 0.052 | 2.166 | 1.62 |  |  | 
25 | O=c1c(Cc2ccc(CN3CCOCC3)o2)nc2c(Cc3ccccc3)[nH]c(-c3ccccc3)cn1-2 [Compound 81] | 0.0059 | 0.246 | 1.19 |  |  | 
26 | O=c1c(Cc2cnns2)nc2c(Cc3ccccc3)[nH]c(-c3ccccc3)cn1-2 [Compound 82] | 0.13 | 5.416 | 1.19 |  |  | 
